Experimental data taken from PubChem BioAssay AID2633 (Broad Institute, 2010).
Activity calls are given as the source filed them. How the calls were made is not given here.

The compounds below were run on DRD oncogenic fibroblast cytotoxicity, fluorescence viability (assay: cytotoxicity toward DRD oncogenic fibroblasts, dose response, cell-based, fluorescence viability readout (AID 2633)).

| SMILES | EC50 |
| --- | --- |
| Cc1cccnc1Nc1nc(-c2ccccn2)cs1 | 428 nM |
| COc1ccc(C[C@H]2NC[C@H](O)[C@H]2OC(C)=O)cc1 | 44.7 nM |
| Nc1nc(CCl)nc(Nc2cccc3ccccc23)n1 | 660 nM |
| COc1ccc(C(C(=O)NC2CCCCC2)N(C(=O)CCl)c2ccc(C)cc2)cc1 (stereo not drawn) | 737 nM |
| COC(=O)C[C@](O)(CCCC(C)(C)O)C(=O)O[C@@H]1C(OC)=C[C@]23CCCN2CCc2cc4c(cc2[C@H]13)OCO4 | 4.64 nM |
| COc1ccc(S(=O)(=O)N2CCOCC2)cc1NC(=O)CCNC(=O)c1ccc(Br)cc1 | > 6670 nM (inactive) |
| CC(C)C(=O)Nc1ccc(C(=O)NCc2cccnc2)cc1 | > 6670 nM (inactive) |
| CCc1ccc(/C=C2\SC(=S)N(CCC(=O)NCCCN3CCOCC3)C2=O)cc1 | 4700 nM |
| COc1cccc(N(C(=O)CCl)C(C(=O)NCCc2ccccc2)c2cccs2)c1 (stereo not drawn) | 280 nM |
| O=C(COc1ccc(Cl)cc1)Nc1ccc(C(=O)NCc2cccnc2)cc1 | > 6670 nM (inactive) |
| Cc1cccc(Nc2nc(N)nc(CCl)n2)c1 | 2180 nM |
| CC[C@@]1(O)C(=O)OCc2c1cc1n(c2=O)Cc2cc3c(N)cccc3nc2-1 | 129 nM |
| O=C1SC(Cc2ccccc2)C(=O)N1c1ccccc1 (stereo not drawn) | > 6670 nM (inactive) |
| Cc1cccc(OCC(=O)Nc2ccc(C(=O)NCc3cccnc3)cc2)c1 | > 6670 nM (inactive) |
| COc1ccc(OC)c(Nc2nc(N)nc(CCl)n2)c1 | 1520 nM |
| COc1ccc(N(C(=O)CCl)C(C(=O)NCCc2ccccc2)c2cccs2)cc1 (stereo not drawn) | 447 nM |
| COc1ccc(N(C(=O)CCl)C(C(=O)NCCc2ccccc2)c2cccs2)cc1Cl (stereo not drawn) | 25.3 nM |
| CC[C@@]1(O)C(=O)OCc2c1cc1n(c2=O)Cc2cc3c(CN(C)C)c(O)ccc3nc2-1 | 820 nM |
| Cc1ccc(C(=O)Sc2cccccc2=O)cc1 | 55.4 nM |
| Cc1ccc(/C=C2\SC(=S)N(CCCC(=O)N3CCOCC3)C2=O)cc1 | > 6670 nM (inactive) |

| SMILES | EC50 |
| --- | --- |
| Cc1cccc(Nc2nc(N)nc(CCl)n2)c1C | 568 nM |
| CC[C@@]1(O)C(=O)OCc2c1cc1n(c2=O)Cc2cc3ccccc3nc2-1 | 454 nM |
| CCN1/C(=C\C=C\C2=[N+](CC)c3ccccc3C2(C)C)C(C)(C)c2ccccc21 | 249 nM |
| Cc1ccc(N(C(=O)CCl)C(C(=O)NC2CCCCC2)c2cccnc2)cc1C (stereo not drawn) | 75.6 nM |
| O=S(=O)(c1ccc2c(c1)C(=NO)c1cc(S(=O)(=O)N3CCCCC3)ccc1-2)N1CCCCC1 | 2120 nM |
| CC(C)c1onc(C(=O)N2CCN(C(c3ccccc3)c3ccccc3)CC2)c1[N+](=O)[O-] | 617 nM |
| CCc1ccc(/C=C2/SC(=S)N(CCC(=O)NCCCN3CCOCC3)C2=O)cc1 | 5320 nM |
| CC1=CC(=O)C=C(C)C1=NOc1ccccc1[N+](=O)[O-] | > 6670 nM (inactive) |
| CC(Oc1ccc(Cl)cc1Cl)c1nc(-c2ccc(NC(=O)c3cccnc3)cc2)no1 (stereo not drawn) | > 6670 nM (inactive) |
| COc1ccc(-c2nnc(NC(=O)c3ccc(S(=O)(=O)N4CCc5ccccc5C4)cc3)o2)cc1 | > 6670 nM (inactive) |
| Nc1nc(CCl)nc(Nc2ccc3ccccc3c2)n1 | 182 nM |
| Cc1onc(C(=O)N2CCN(C(c3ccccc3)c3ccccc3)CC2)c1[N+](=O)[O-] | 1300 nM |
| O=C(NCc1cccnc1)c1ccc(NC(=O)c2cccc([N+](=O)[O-])c2)cc1 | > 6670 nM (inactive) |
| CCOc1ccc(Nc2nc(N)nc(CCl)n2)cc1 | 575 nM |
| COc1ccc(C(C(=O)NC2CCCCC2)N(C(=O)CCl)c2cccc(Cl)c2)cc1 (stereo not drawn) | 48.6 nM |
| O=C(CCl)N=c1sccn1Cc1ccccc1Cl | 126 nM |
| CCCCCCCN(C(=O)CCl)c1cccc(C)c1 | 1090 nM |
| COc1ccc(CN(CCC(c2ccccc2)c2ccc(OC(C)C)cc2)C(=O)CCl)cc1OC (stereo not drawn) | 1480 nM |
| C=CCOc1ccccc1CN(C(=O)CCl)c1ccc2c(c1)OCO2 | 2430 nM |
| C/C(=N\Nc1ncc(Cl)cc1Cl)c1ccccn1 | 19.6 nM |

| SMILES | EC50 |
| --- | --- |
| C=C1C(=O)O[C@@H]2C[C@@H](C)[C@@H]3C=CC(=O)[C@@]3(C)[C@@H](OC(=O)CC(=O)O[C@H]3[C@@H]4C(=C)C(=O)O[C@@H]4C[C@@H](C)[C@@H]4C=CC(=O)[C@]43C)[C@H]12 | 32.4 nM |
| COc1ccc(/C=N/NC(=O)c2[nH]c3ccc(Br)cc3c2-c2ccccc2)cc1 | 134 nM |
| COc1ccc(Cc2nc(-c3ccc(NC(=O)c4cccnc4)cc3)no2)cc1 | > 6670 nM (inactive) |
| COC(=O)[C@@H]1Cc2c([nH]c3ccccc23)C(C)(C)N1C(=O)CCl | 1010 nM |
| O=C(Cc1ccc([N+](=O)[O-])cc1)N/N=C/c1ccc([N+](=O)[O-])o1 | > 6670 nM (inactive) |
| CC(=O)Nc1ccc(NC(=O)CN(c2cccc([N+](=O)[O-])c2)S(C)(=O)=O)cc1 | > 6670 nM (inactive) |
| CCc1ccc(/C=C2/SC(=S)N(CCC(=O)Nc3cccnc3)C2=O)cc1 | > 6670 nM (inactive) |
| Cc1ccccc1Nc1nc(N)nc(CCl)n1 | 1980 nM |
| O=C(NCc1cccnc1)c1ccc(NC(=O)c2ccc([N+](=O)[O-])cc2)cc1 | > 6670 nM (inactive) |
| CC[C@@]1(O)C(=O)OCc2c1cc1n(c2=O)Cc2cc3c(NC(=O)CN)cccc3nc2-1 | 4610 nM |
| Cc1ccc(C2CC(c3cccs3)=NN2C(=O)CCl)cc1 (stereo not drawn) | 1420 nM |
| CCOc1ccc(CC(=O)Nc2ccc(NC(=O)c3ccco3)cc2)cc1OCC | > 6670 nM (inactive) |
| Oc1ccccc1N=Nc1nc(-c2ccccc2)c(-c2ccccc2)[nH]1 | 378 nM |
| CN1CCN(C(=O)CCCN2C(=O)/C(=C/c3cccc(Br)c3)SC2=S)CC1 | > 6670 nM (inactive) |
| O=C(N/N=C/c1cccnc1)c1ccc(NC(=O)C(c2ccccc2)c2ccccc2)cc1 | > 6670 nM (inactive) |
| Cc1ccc(Nc2nc(N)nc(CCl)n2)c(C)c1 | 499 nM |
| O=C(CCCCCN1C(=O)c2cccc3cccc(c23)C1=O)NCc1cccnc1 | > 6670 nM (inactive) |
| CC[C@H]1CN2CCc3cc(OC)c(OC)cc3[C@@H]2C[C@@H]1C[C@H]1NCCc2cc(OC)c(OC)cc21 | 9.12 nM |
